Experimental data: ChEMBL document CHEMBL3045686, “Insecticidal Activity of N-Acyl-N-(4-aryloxybenzyl)pyrazole-5-carboxamides” (2003)

system: Spodoptera litura; experiment: Insecticidal activity Spodoptera litura third-instar larvae fed on compound pre-treated cabbage leaf disks assessed as insect mortality at 50 ppm measured 5 days after compound treatment; type: functional; settings: foliar

| SMILES | mortality at 50 ppm [%] |
| --- | --- |
| CC(=O)N(Cc1ccc(Oc2ccc(C#N)cc2)cc1)C(=O)c1cc(C(C)C)nn1C | > 80 |
| COc1cc(C(=O)N(Cc2ccc(Oc3ccc(C#N)cc3)cc2)C(C)=O)n(C)n1 | > 80 |
| CC(=O)N(Cc1ccc(Oc2ccc(C#N)cc2)cc1)C(=O)c1cc(OC(C)C)nn1C | > 80 |
| CCOc1cc(C(=O)N(Cc2ccc(Oc3ccc(C#N)cc3)cc2)C(C)=O)n(C)n1 | > 80 |
| CC(=O)N(Cc1ccc(Oc2ccc(C#N)cc2)cc1)C(=O)c1cc(C)nn1C | > 80 |
| CCc1cc(C(=O)N(Cc2ccc(Oc3ccc(C#N)cc3)cc2)C(=O)C(C)(C)C)n(C)n1 | > 80 |
| CCc1cc(C(=O)NCc2ccc(Oc3ccc(C#N)cc3)cc2)n(C)n1 | > 80 |

system: Spodoptera litura; experiment: Insecticidal activity Spodoptera litura third-instar larvae fed on compound pre-treated cabbage leaf disks assessed as insect mortality at 13 ppm measured 5 days after compound treatment; type: functional; settings: foliar

| SMILES | mortality at 13 ppm [%] |
| --- | --- |
| CCc1cc(C(=O)N(Cc2ccc(Oc3ccc(C#N)cc3)cc2)C(=O)C(C)CC)n(C)n1 (stereo unspecified) | > 80 |
| CCCc1cc(C(=O)N(Cc2ccc(Oc3ccc(C#N)cc3)cc2)C(C)=O)n(C)n1 | > 80 |
| CCc1cc(C(=O)N(Cc2ccc(Oc3ccc([N+](=O)[O-])cc3)cc2)C(C)=O)n(C)n1 | > 80 |
| CC(=O)N(Cc1ccc(Oc2ccc(C#N)cc2)cc1)C(=O)c1cc(C2CC2)nn1C | > 80 |
| CCc1cc(C(=O)N(Cc2ccc(Oc3ccc(C#N)cc3)cc2)C(=O)CC(C)C)n(C)n1 | > 80 |
| CCCCC(=O)N(Cc1ccc(Oc2ccc(C#N)cc2)cc1)C(=O)c1cc(CC)nn1C | > 80 |
| CCc1cc(C(=O)N(Cc2ccc(Oc3ccc(C(F)(F)F)cc3)cc2)C(C)=O)n(C)n1 | > 80 |
| CCCC(=O)N(Cc1ccc(Oc2ccc(C#N)cc2)cc1)C(=O)c1cc(CC)nn1C | > 80 |
| CCc1cc(C(=O)N(Cc2ccc(Oc3ccc(C#N)cc3)cc2)C(=O)C2CC2)n(C)n1 | > 80 |
| CCC(C)c1cc(C(=O)N(Cc2ccc(Oc3ccc(C#N)cc3)cc2)C(C)=O)n(C)n1 (stereo unspecified) | > 80 |
| CCC(=O)N(Cc1ccc(Oc2ccc(C#N)cc2)cc1)C(=O)c1cc(CC)nn1C | > 80 |

system: Spodoptera litura; experiment: Insecticidal activity Spodoptera litura third-instar larvae fed on compound pre-treated cabbage leaf disks assessed as insect mortality at 200 ppm measured 5 days after compound treatment; type: functional; settings: foliar

| SMILES | mortality at 200 ppm [%] |
| --- | --- |
| CCCCCc1cc(C(=O)N(Cc2ccc(Oc3ccc(C#N)cc3)cc2)C(C)=O)n(C)n1 | < 80 |
| CCc1cc(C(=O)N(Cc2ccc(Oc3ccc(OC)cc3)cc2)C(C)=O)n(C)n1 | < 80 |
| CC(=O)N(Cc1ccc(Oc2ccc(C#N)cc2)cc1)C(=O)c1cc(CC(C)C)nn1C | > 80 |
| CCc1cc(C(=O)N(Cc2ccc(Oc3ccc(C)cc3)cc2)C(C)=O)n(C)n1 | > 80 |
| CCCCc1cc(C(=O)N(Cc2ccc(Oc3ccc(C#N)cc3)cc2)C(C)=O)n(C)n1 | < 80 |
| CCc1cc(C(=O)N(Cc2ccc(Oc3ccc(Cl)cc3)cc2)C(C)=O)n(C)n1 | > 80 |
| CC(=O)N(Cc1ccc(Oc2ccc(C#N)cc2)cc1)C(=O)c1cc(C(C)(C)C)nn1C | < 80 |
| CCc1cc(C(=O)N(Cc2ccc(Oc3ccc(F)cc3)cc2)C(C)=O)n(C)n1 | > 80 |
| CCc1cc(C(=O)N(Cc2ccc(Oc3ccccc3)cc2)C(C)=O)n(C)n1 | < 80 |
| CCCCOc1cc(C(=O)N(Cc2ccc(Oc3ccc(C#N)cc3)cc2)C(C)=O)n(C)n1 | > 80 |

system: Spodoptera litura; experiment: Insecticidal activity Spodoptera litura third-instar larvae fed on compound pre-treated cabbage leaf disks assessed as insect mortality at 3.1 ppm measured 5 days after compound treatment; type: functional; settings: foliar

| SMILES | mortality at 3.1 ppm [%] |
| --- | --- |
| CCc1cc(C(=O)N(Cc2ccc(Oc3ccc(C#N)cc3)cc2)C(=O)C(C)C)n(C)n1 | > 80 |
| CCc1cc(C(=O)N(Cc2ccc(Oc3ccc(C#N)cc3)cc2)C(C)=O)n(C)n1 | > 80 |
| CCc1cc(C(=O)N(Cc2ccc(Oc3ccc(SC)cc3)cc2)C(C)=O)n(C)n1 | > 80 |
